In patent US4880826A, “Melatonin antagonist” (priority 1986, dated 1989):

Legend:
prepubertal male rats = experiment: Long-term administration to prepubertal male rats: accessory sex organ development and testosterone; assay type: in vivo, rat
From the text: (1) Long-term administration of melatonin (via the drinking water or via intraperitoneal injection) to prepubertal male rats results in retardation of testicular accessory sex organ development.
(4) Long-term administration of ML-23 alone to prepubertal male rats, enhanced testosterone levels in the blood of the animals.

adult female rats = experiment: Melatonin block of luteinizing hormone secretion and ovulation in adult female rats at proestrus; assay type: in vivo, rat
From the text: (2) Melatonin administration to adult female rats in the afternoon of proestrus blocks the phasic secretion of luteinizing hormone and ovulation.

[1] = test system: Female rats kept under constant illumination; experiment: Ovarian cyclicity of female rats kept under constant illumination; assay type: in vivo, rat
Melatonin receptor = Melatonin receptor assay using 2-125I-iodo-ML-23; assay type: binding, rat; conditions: female rats: hypothalamus, medulla-pons, hippocampus, cerebellum, striatum, parietal cortex
Method: Tissue sections or isolated cells were suspended in 10 ml/g ice-cold 0.32M sucrose, homogenized in a teflon-glass homogenizer. The homogenate was centrifuged (10000 g-min) the pellet was discarded and the supernatant centrifuged (68000 g-min). The crude membrane pellet was suspended in 2 vol of 50 mM Tris-HCL buffer, pH 7.4 containing 4 mM CaCl2. 2-^125 I-iodo-ML-23 was prepared by iodination of ML-23 with Na^125 I (Amersham) (20 CI/mmol) in the presence of Iodo-Gen. The principal iodination product, 2-^125 I-iodo-ML 23 (^125 I-MLI-23) was separated from unsubstituted ML-23 as described in Example 2. Aliquots of the membrane preparations (200 μg protein/20 μl) were incubated with 40 μl Trisbuffer containing 20-100 nM ^125 I-MLI-23 for 30 min. at 37° C. on a shaking water bath, in the absence or presence of unlabelled melatonin (50 μM). Membranes were then collected by vacuum filtration using GF/C glass fiber filters and washed with 3×4 ml buffer at 4° C. The filters containing bound ^125 I-ML-23 were assayed for radioactivity using a Packard gamma counter. Specific binding was defined as that displaced by 50 μM of non-radioactive melatonin and ranged from 50 to 60% of the total binding at 50 nM ^125 I-MLI-23. […]

rat hypothalamus = conditions: cited from earlier work
[2] = oral administration in the presence of melatonin

Q: For `COc1ccc2[nH]cc(CCNc3ccc([N+](=O)[O-])cc3[N+](=O)[O-])c2c1` [ML-23, N-2,4-dinitrophenyl-5-methoxy-tryptamine], which “testosterone levels in the blood” value (prepubertal male rats; long-term administration alone) is on record?
A: enhanced

Q: And the “effect on melatonin's suppressive effects on prostate and seminal vesicle growth” value (prepubertal male rats; [2])?
A: entirely abolished

Q: What about the “effect on melatonin's suppressive effects on serum testosterone levels” value (prepubertal male rats; [2]) of the same molecule?
A: entirely abolished

Q: And the “effect on melatonin block of luteinizing hormone secretion and ovulation” value (adult female rats; via the drinking water, female rats given melatonin)?
A: prevented the effect of melatonin and normal ovulation occurred

Q: And the “ovarian cyclicity re-established by daily melatonin injections” value ([1]; rats treated orally with the antagonist, constant illumination)?
A: not in rats treated orally with ML-23

Q: With `COc1ccc2[nH]c([125I])c(CCNc3ccc([N+](=O)[O-])cc3[N+](=O)[O-])c2c1` [^125 I-MLI-23] as the molecule, how does the “specific binding in brain regions” value (Melatonin receptor) read?
A: found

Q: With `COc1ccc2[nH]cc(CCNC(C)=O)c2c1` [melatonin, 5-methoxy-N-acetyl-tryptamine] as the molecule, how does the “testicular accessory sex organ development” value (prepubertal male rats; long-term administration via the drinking water or intraperitoneal injection) read?
A: retardation

Q: And the “phasic secretion of luteinizing hormone and ovulation” value (adult female rats; administration in the afternoon of proestrus, adult female rats)?
A: blocks

Q: What about the “stimulated release of dopamine” value (rat hypothalamus) of the same molecule?
A: inhibits

Q: And the ovarian cyclicity ([1]; daily melatonin injections, female rats under constant illumination)?
A: reestablish ovarian cyclicity
